For assay [1], the target named is T1, Adenosine receptor A2b (Rattus norvegicus, UniProt P29276).
T1 sequence (P29276 whole entry): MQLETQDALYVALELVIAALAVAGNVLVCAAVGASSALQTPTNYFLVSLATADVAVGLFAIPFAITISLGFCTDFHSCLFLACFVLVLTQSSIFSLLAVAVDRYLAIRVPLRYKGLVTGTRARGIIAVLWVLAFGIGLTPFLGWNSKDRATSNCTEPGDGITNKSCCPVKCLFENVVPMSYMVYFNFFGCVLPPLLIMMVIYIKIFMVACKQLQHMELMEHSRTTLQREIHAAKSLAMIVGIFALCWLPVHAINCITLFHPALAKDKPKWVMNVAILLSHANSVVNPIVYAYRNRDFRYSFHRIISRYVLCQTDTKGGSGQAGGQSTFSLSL
Description: Inhibitory activity on N-ethylcarboxamidoadenosine (NECA)-induced glucose production in primary cultured rat hepatocytes. The assay is classed as functional, cell-based, Hepatocyte.

In assay [2] the target is T2, Adenosine receptor A1 (Homo sapiens, UniProt P30542).
T2 sequence (P30542 whole entry): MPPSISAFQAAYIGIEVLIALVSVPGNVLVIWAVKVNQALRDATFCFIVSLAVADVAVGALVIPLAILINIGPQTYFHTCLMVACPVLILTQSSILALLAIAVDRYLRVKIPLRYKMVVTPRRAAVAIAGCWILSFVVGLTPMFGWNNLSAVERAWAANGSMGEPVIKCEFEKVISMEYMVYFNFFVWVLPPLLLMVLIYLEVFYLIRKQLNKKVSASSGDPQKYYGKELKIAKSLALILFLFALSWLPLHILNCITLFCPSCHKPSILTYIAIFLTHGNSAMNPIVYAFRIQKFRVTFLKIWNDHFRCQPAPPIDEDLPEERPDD
Description: Binding Affinity towards Adenosine A1 receptor expressed in CHO-K1 cells versus [3H]CCPA. The assay is classed as cell-based.

In assay [3] the target is T3, Adenosine receptor A2b (Homo sapiens, UniProt P29275).
T3 sequence (P29275 whole entry): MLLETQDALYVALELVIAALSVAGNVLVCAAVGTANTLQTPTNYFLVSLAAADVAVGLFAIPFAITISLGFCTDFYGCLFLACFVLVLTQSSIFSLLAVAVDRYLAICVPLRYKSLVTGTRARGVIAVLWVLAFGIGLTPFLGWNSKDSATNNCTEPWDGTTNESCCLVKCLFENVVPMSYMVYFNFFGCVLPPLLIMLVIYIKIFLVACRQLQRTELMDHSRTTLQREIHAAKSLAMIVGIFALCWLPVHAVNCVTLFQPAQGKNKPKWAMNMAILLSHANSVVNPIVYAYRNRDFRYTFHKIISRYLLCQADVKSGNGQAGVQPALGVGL
Nature of the assay: Inhibitory activity on NECA-induced cyclic-AMP accumulation in CHO-K1 cells expressing human Adenosine A2B receptor. It counts as functional, cell-based.

The target in assay [4] is T4, Adenosine receptor A3 (Homo sapiens, UniProt P0DMS8).
T4 sequence (P0DMS8 whole entry): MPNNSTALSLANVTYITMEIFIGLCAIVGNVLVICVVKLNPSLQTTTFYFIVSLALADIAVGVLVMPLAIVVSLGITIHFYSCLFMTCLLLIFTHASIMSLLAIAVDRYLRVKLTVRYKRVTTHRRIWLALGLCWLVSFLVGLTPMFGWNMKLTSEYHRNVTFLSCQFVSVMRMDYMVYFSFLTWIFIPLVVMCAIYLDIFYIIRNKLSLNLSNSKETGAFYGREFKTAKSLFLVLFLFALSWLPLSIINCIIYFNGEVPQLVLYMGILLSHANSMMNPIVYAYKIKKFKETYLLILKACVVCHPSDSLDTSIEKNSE
Nature of the assay: Binding affinity towards adenosine A3 receptor expressed in HEK293 cells versus [125I]AB-MECA. It counts as cell-based.

The target of assay [5] is T3, Adenosine receptor A2b. Description: Inhibitory activity against cyclic AMP production in human Adenosine A2B receptor assay.
Assay [6] has as its target T5, Adenosine receptor A2a (Homo sapiens, UniProt P29274). Nature of the assay: Binding Affinity for adenosine A2A receptor expressed in HEK293 cells compared to [3H]CGS-21680. It counts as cell-based.
Assay [7] addresses T5, Adenosine receptor A2a. Nature of the assay: Binding Affinity towards Adenosine A2A receptor expressed in HEK293 cells versus [3H]CGS-21680. It counts as cell-based.
The target in assay [8] is T4, Adenosine receptor A3. Nature of the assay: Inhibitory activity against cyclic AMP production in human adenosine A3 receptor assay.
For assay [9], the target named is Adenosine receptor A2a (Rattus norvegicus) (UniProt P30543). Description: Inhibitory activity against cyclic AMP production in rat Adenosine A2A receptor assay.
The target in assay [10] is T6, Adenosine receptor A1 (Rattus norvegicus, UniProt P25099).
T6 sequence (P25099 whole entry): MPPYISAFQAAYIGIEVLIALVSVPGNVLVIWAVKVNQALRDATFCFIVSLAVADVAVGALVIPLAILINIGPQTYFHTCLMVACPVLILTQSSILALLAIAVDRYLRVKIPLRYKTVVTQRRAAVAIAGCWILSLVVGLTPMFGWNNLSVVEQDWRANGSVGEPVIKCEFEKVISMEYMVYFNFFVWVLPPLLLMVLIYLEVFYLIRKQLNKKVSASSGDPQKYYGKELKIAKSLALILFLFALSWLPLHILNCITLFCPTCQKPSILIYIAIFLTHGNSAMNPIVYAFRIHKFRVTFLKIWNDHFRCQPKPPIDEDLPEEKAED
Description: Inhibitory activity against cyclic AMP production in rat Adenosine A1 receptor assay.

The record followed here is ChEMBL document CHEMBL1134604, “2-Alkynyl-8-aryl-9-methyladenines as novel adenosine receptor antagonists: their synthesis and structure-activity relationships toward hepatic glucose production induced via agonism of the A(2B) receptor” (J Med Chem, 2001).

T5 sequence (P29274 whole entry): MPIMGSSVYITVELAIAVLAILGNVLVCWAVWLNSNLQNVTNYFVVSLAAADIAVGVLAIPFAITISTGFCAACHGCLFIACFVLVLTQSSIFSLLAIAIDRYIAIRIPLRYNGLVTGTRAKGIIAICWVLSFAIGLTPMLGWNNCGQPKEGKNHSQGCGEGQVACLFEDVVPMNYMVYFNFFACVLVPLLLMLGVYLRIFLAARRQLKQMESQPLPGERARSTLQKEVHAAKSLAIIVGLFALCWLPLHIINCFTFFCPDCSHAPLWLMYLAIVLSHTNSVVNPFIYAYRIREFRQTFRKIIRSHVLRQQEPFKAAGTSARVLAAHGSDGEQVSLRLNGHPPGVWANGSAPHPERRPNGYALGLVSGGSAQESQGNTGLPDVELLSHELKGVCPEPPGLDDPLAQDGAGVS
Chain of Adenosine receptor A2a (Rattus norvegicus) (P30543 whole entry, looked up): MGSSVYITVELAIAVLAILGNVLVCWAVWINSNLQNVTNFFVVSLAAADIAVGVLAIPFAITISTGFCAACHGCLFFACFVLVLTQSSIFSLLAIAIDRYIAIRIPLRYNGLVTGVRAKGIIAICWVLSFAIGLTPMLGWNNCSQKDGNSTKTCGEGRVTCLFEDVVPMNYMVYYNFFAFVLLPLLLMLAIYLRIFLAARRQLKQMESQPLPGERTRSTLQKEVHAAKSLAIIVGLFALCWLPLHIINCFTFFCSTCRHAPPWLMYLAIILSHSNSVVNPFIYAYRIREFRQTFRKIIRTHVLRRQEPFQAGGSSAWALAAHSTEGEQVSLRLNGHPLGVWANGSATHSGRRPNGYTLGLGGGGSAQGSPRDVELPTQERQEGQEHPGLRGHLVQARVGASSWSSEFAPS

On Adenosine receptor A2b [1], `Cn1c(-c2cccc(F)c2)nc2c(N)nc(C#CC3CCCC3)nc21` displayed a 50% inhibitory concentration (IC50) of 720 nM.
As to `Cn1c(-c2cccc(F)c2)nc2c(N)nc(C#CC3(O)CCCC3)nc21`, the Ki stood at 20 nM on Adenosine receptor A1 [2] and 1100 nM on Adenosine receptor A3 [4]. Further, the results for the IC50 on Adenosine receptor A2b [3] and at Adenosine receptor A2b [1] were 63 nM and 420 nM, respectively.
For the compound `COC(=O)C1=C2C=CN(C)C=C2c2nc(-c3ccccc3)nn2C1`, the Ki at Adenosine receptor A1 [2] and at Adenosine receptor A2a [6] was above 10000 nM throughout. For the same compound, the IC50 against Adenosine receptor A2b [5] is 3000 nM; at Adenosine receptor A2b [3], 3000 nM; at Adenosine receptor A2b [1], above 10000 nM.
Consider `Cn1c(-c2ccccc2F)nc2c(N)nc(C#CC3(O)CCCCC3)nc21`, for which the results for the Ki at Adenosine receptor A1 [2] and at Adenosine receptor A2a [7] were 19 nM and 15 nM, respectively. The IC50 on Adenosine receptor A2b [3] is 77 nM; at Adenosine receptor A2b [1], 440 nM.
As to `Cn1c(-c2ccc(F)cc2)nc2c(N)nc(C#CC3(O)CCCCC3)nc21`, the IC50 on Adenosine receptor A2b [3] is 160 nM; at Adenosine receptor A2b [1] it was 1200 nM.
For the compound `Cn1c(-c2cccc(F)c2)nc2c(N)nc(C#CC(C)(C)O)nc21`, the Ki was 30 nM on Adenosine receptor A1 [2], 9.1 nM on Adenosine receptor A2a [7] and 2100 nM at Adenosine receptor A3 [4]. Besides, the IC50 against Adenosine receptor A2b [3] was found to be 150 nM; at Adenosine receptor A2b [1], 510 nM.
On to `Cn1c(-c2ccccc2)nc2c(N)nc(C#CC3(O)CCCCC3)nc21`, for which the IC50 against Adenosine receptor A2b [1] turned out to be 760 nM.
With `Cn1c(-c2cccc(F)c2)nc2c(N)ncnc21`, the IC50 against Adenosine receptor A2b [1] stood at 5300 nM.
On the same count and under the same terms, the figure for `COc1cccc(-c2nc3c(N)nc(C#CC4(O)CCCCC4)nc3n2C)c1` is 1600 nM.
Regarding `Cn1c(-c2ccc(Cl)cc2)nc2c(N)nc(C#CC3(O)CCCCC3)nc21`, the IC50 on Adenosine receptor A2b [3] worked out at 500 nM; at Adenosine receptor A2b [1], 6300 nM.
Regarding `Cn1c(-c2cccc(F)c2)nc2c(N)nc(C#CC3(O)CCCCC3)nc21`, the Ki is 14 nM on Adenosine receptor A1 [2], 16 nM at Adenosine receptor A2a [7] and 540 nM on Adenosine receptor A3 [4]. Moreover, the IC50 is 23 nM at Adenosine receptor A2b [3] and 250 nM on Adenosine receptor A2b [1].
On to `Cn1c(-c2cccc(F)c2)nc2c(N)nc(C#CC3(O)CCCCCC3)nc21`, for which the Ki at Adenosine receptor A1 [2] came to 27 nM; at Adenosine receptor A2a [7], 19 nM. Besides, the IC50 came out at 49 nM on Adenosine receptor A2b [3] and 440 nM against Adenosine receptor A2b [1].
Regarding `CCC(O)(C#Cc1nc(N)c2nc(-c3cccc(F)c3)n(C)c2n1)CC`, the figures for the Ki at Adenosine receptor A1 [2], at Adenosine receptor A2a [7] and at Adenosine receptor A3 [4] were 29 nM, 13 nM and 330 nM, respectively. In addition, the IC50 on Adenosine receptor A2b [3] came out at 140 nM; against Adenosine receptor A2b [1], 540 nM.
Regarding `Cn1cnc2c(N)nc(C#CC3(O)CCCCC3)nc21`, the IC50 at Adenosine receptor A2b [1] was found to be 4400 nM.
`Cn1c(-c2cccc(Cl)c2)nc2c(N)nc(C#CC3(O)CCCCC3)nc21` displayed an IC50 against Adenosine receptor A2b [1] of 490 nM.
`Cn1c(-c2cccc(C#N)c2)nc2c(N)nc(C#CC3(O)CCCCC3)nc21`: the Ki was determined as 130 nM at Adenosine receptor A1 [2] and 13 nM on Adenosine receptor A2a [7]. For the same compound, the figures for the IC50 against Adenosine receptor A2b [3] and on Adenosine receptor A2b [1] were 72 nM and 410 nM, respectively.
Compound `COc1ccc(-c2nc3c(N)nc(C#CC4(O)CCCCC4)nc3n2C)cc1F` had an IC50 against Adenosine receptor A2b [1] above 10000 nM.
With `Cn1c(-c2cccs2)nc2c(N)nc(C#CC3(O)CCCCC3)nc21`, the IC50 against Adenosine receptor A2b [1] amounted to 750 nM.
On to `Cn1c(-c2ccco2)nc2c(N)nc(C#CC3(O)CCCCC3)nc21`, for which the Ki on Adenosine receptor A1 [2] turned out to be 25 nM; on Adenosine receptor A2a [7], 11 nM. For the same compound, the IC50 against Adenosine receptor A2b [3] came to 14 nM; against Adenosine receptor A2b [1] it was 220 nM.
As for `Cc1cccc(-c2nc3c(N)nc(C#CC4(O)CCCCC4)nc3n2C)c1`, at Adenosine receptor A2b [1], inhibition was half-maximal at 970 nM (IC50).
With `Cn1c(-c2cccc(C(F)(F)F)c2)nc2c(N)nc(C#CC3(O)CCCCC3)nc21`, the figures for the half-inhibitory concentration (IC50) against Adenosine receptor A2b [3] and against Adenosine receptor A2b [1] were 5600 nM and above 10000 nM, respectively.
As for `Cn1c(=O)c2[nH]c(-c3ccccc3)nc2n(C)c1=O` [8-PHENYL THEOPHYLLINE], the IC50 at Adenosine receptor A2b [5] was 210 nM; against Adenosine receptor A2b [3] it was 210 nM; against Adenosine receptor A3 [8], 1250 nM; on Adenosine receptor A2b [1], 1100 nM; in assay [9], 454 nM.
The compound `Cn1c(-c2ccccn2)nc2c(N)nc(C#CC3(O)CCCCC3)nc21` showed an IC50 on Adenosine receptor A2b [1] of 1300 nM.
`O=C(/C=C/c1c(-c2ccccc2)nn2ccccc12)N1CCCC[C@@H]1CCO` [FK453]: the Ki at Adenosine receptor A1 [2] was 18 nM; on Adenosine receptor A3 [4], 2800 nM. Further, the IC50 against Adenosine receptor A1 [10] was found to be 17.2 nM; against Adenosine receptor A2b [1], 8100 nM.
On to `CCCn1c(=O)c2c(nc(/C=C/c3ccc(OC)c(OC)c3)n2C)n(CCC)c1=O`, for which the results for the Ki at Adenosine receptor A1 [2] and on Adenosine receptor A3 [4] were above 10000 nM and 2500 nM, respectively. Further, the values for the IC50 at Adenosine receptor A2b [3] and on Adenosine receptor A1 [10] were 1500 nM and 62 nM, respectively.
